Assay results as given in PubChem BioAssay (NCI).
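Tested at 5 concentrations; 48 h exposure; 96-well plates; endpoints linearly interpolated, else capped at highest concentration. GI50 marks 50% less growth. TGI: concentration producing complete growth inhibition.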

How the values were obtained:
Test in all cases: inhibition of tumour cell growth, NCI panel, 48 h
[1] = tested on: HT29 colon
[2] = tested on: MALME-3M melanoma
[3] = tested on: NCI-H226 lung
[4] = tested on: NCI-H522 lung
[5] = tested on: OVCAR-5 ovarian
[6] = tested on: OVCAR-8 ovarian
[7] = tested on: RXF 393 renal
[8] = tested on: SF-539 CNS
[9] = tested on: SNB-19 CNS
[10] = tested on: SNB-75 CNS

Row | Structure (SMILES) | TGI [1] [µM] | TGI [2] [µM] | TGI [3] [µM] | TGI [4] [µM] | TGI [5] [µM] | TGI [6] [µM] | TGI [7] [µM] | TGI [8] [µM] | TGI [9] [µM] | TGI [10] [µM] | GI50 [1] [µM] | GI50 [2] [µM] | GI50 [3] [µM] | GI50 [4] [µM] | GI50 [6] [µM] | GI50 [7] [µM] | GI50 [8] [µM] | GI50 [9] [µM] | GI50 [10] [µM] | GI50 [5] [µM]
1 | CCOc1ccc(NC(=O)CCc2nnc(SC)o2)cc1 | > 100 | > 100 | > 100 | > 100 | > 100 | > 100 | > 100 | > 100 | > 100 | > 100 |  |  |  |  |  |  |  |  |  | 
2 | CN1CCc2nc3sc(C(N)=O)c(N)c3c(-c3cccs3)c2C1 | 70.9 | 38.4 | > 100 | 17.8 |  | > 100 | 3.63 | 6.79 | > 100 | 8.03 | 3.11 | 5.06 | 3.16 | 2.91 | 2.7 | 1.11 | 2.35 | 4.34 | 2.81 | 
3 | Fc1ccc(/C=N/n2c(-c3ccc(F)c(Cl)c3)n[nH]c2=S)cc1 | > 100 | 60.2 | 83.8 | 52.2 | 48.3 | > 100 | 39.9 | > 100 | 44.1 | 30.1 | 35.3 | 18.3 | 36.5 | 23.3 | 34.7 | 21.2 | 32 | 22.5 | 15.3 | 21.8
4 | CCN1C(=O)N(CC)C2C1NN=c1s/c(=C\c3ccc(F)cc3)c(=O)n12 (stereo unspecified) | > 100 | > 100 | > 100 | 0.903 | > 100 | > 100 | 0.622 | 0.527 | > 100 | 0.611 | 0.0614 | 28.9 | 20.3 | 0.0931 | 0.43 | 0.162 | 0.158 | 0.374 | 0.0474 | 0.473
5 | c1cc(N2CCN(c3ccc(C4=NCCCN4)cc3)CC2)ccc1C1=NCCCN1 | > 100 | > 100 | > 100 | > 100 | > 100 | > 100 | > 100 | > 100 | > 100 | > 100 | > 53.2 | > 47.6 | 59.3 | > 55.9 | > 95.7 | > 35.8 | > 74.5 | > 71.2 | > 89.4 | > 87.8
6 | O=C1c2ccccc2N2OC3(N4CCCC4)CCCCC3C12c1ccccc1 (stereo unspecified) | 52.6 | 38.7 | > 100 | 29.1 |  | 32.9 | 39.4 | 80.5 | > 100 | > 100 |  |  |  |  |  |  |  |  |  | 
7 | COc1ccc(-c2cc(=O)c3c(O)cccc3o2)c(OC)c1OC | > 100 | > 100 | > 100 | > 100 | > 100 | > 100 | > 100 | 86.9 |  | 75.5 |  |  |  |  |  |  |  |  |  | 
8 | CCC(=O)Nc1ccc(N2C(=O)/C(=C/c3ccc(OC)cc3)N=C2c2ccccc2)cc1 | > 50 |  | 33.7 | > 50 | > 50 | > 50 | > 50 | 16 | > 50 | > 50 | 5.91 |  | 8.93 | 48.5 | 7.38 | 11.3 | 5.49 | 14.1 | 6.86 | > 50
9 | O=c1c2cc(F)ccc2sc2c(NCCCNCCO)nc3ccccc3c12 | 3.43 | 3.09 | 3 | 3.8 | 3.05 |  | 2.9 | 3.19 | 3.14 | 2.96 | 1.75 | 1.61 | 1.5 | 1.87 |  | 1.49 | 1.74 | 1.66 | 1.5 | 1.61
10 | Cc1cccc(NC(=O)/C(=N\N)C(c2cnc3ccc([N+](=O)[O-])cc3n2)[N+](=O)[O-])c1C (stereo unspecified) | > 100 | > 100 | > 100 | > 100 |  | > 100 | > 100 | > 100 | > 100 | > 100 |  |  |  |  |  |  |  |  |  | 
11 | CCOC(=O)c1cc2c(cc1Cl)SC(=Nc1ccccc1)N(S(=O)(=O)c1ccc(Br)s1)S2(=O)=O | > 100 |  | 35 | 74.9 | 50.8 | 39.3 | 11.5 | 29.3 | > 100 | 60.8 | 31.2 |  | 16.2 | 26.4 | 17 | 2.1 | 14.3 | 36.6 | 23.4 | 22
12 | N#CCCNc1nonc1-c1nc2ccccc2n1CC(=O)c1ccc(NC(=O)[C@@H](N)CCCCN)cc1 | > 33.3 | > 100 | > 100 | > 100 | > 100 | > 100 | > 100 |  | > 100 | > 100 | 0.0326 | > 100 |  | 0.0363 | 0.0554 | 0.0353 |  | > 100 | 0.0106 | 0.0644
